Measured values: EPA's ToxRefDB 2

Tests used:
rat [1] = settings: Prenatal developmental toxicity study, wistar, Oral, Gavage/Intubation, dose end: 20 GD
rat [2] = settings: Combined chronic toxicity/carcinogenicity, wistar, Oral, Feed, dose end: 24 month, group: systemic
mouse [3] = settings: Carcinogenicity; cd1; Oral; Feed; dose end: 80 week; group: systemic; systemic / pathology microscopic / liver / hypertrophy + systemic / pathology microscopic / liver / infiltration cellular + systemic / …
rat [4] = settings: Multigenerational reproductive toxicity study, sprague dawley, Oral, Feed, dose end: 2 generation
dog [5] = settings: Subchronic oral toxicity in nonrodent, beagle, Feed, dose end: 90 day, group: systemic, systemic / clinical chemistry / alanine aminotransferase (alt/sgpt) / alanine aminotransferase (alt/sgpt) + systemic / clinical chemistry / …
dog [6] = settings: Chronic toxicity; beagle; Oral; Feed; dose end: 107 week; group: systemic; systemic / clinical chemistry / [other] / [other] + systemic / clinical chemistry / alanine aminotransferase (alt/sgpt) / alanine …
rat [7] = settings: Subchronic oral toxicity in rodents, other, Feed, dose end: 90 day, group: systemic, systemic / in life observation / body weight / body weight gain + systemic / organ weight / kidney / nos + systemic / organ weight / liver…
rat [8] = settings: Sub-acute repeat dose toxicity, Oral, Gavage/Intubation, dose end: 30 day, group: systemic
primate [9] = settings: Sub-acute repeat dose toxicity; Oral; Gavage/Intubation; dose end: 4 day; group: systemic; systemic / in life observation / clinical signs / ataxia + systemic / in life observation / clinical signs / emesis + systemic / in life …
rat [10] = settings: Sub-acute repeat dose toxicity; Oral; Gavage/Intubation; dose end: 10 day; group: systemic; systemic / hematology / erythrocyte (rbc) count differential / erythrocyte (rbc) + systemic / hematology / hematocrit (hct) / hematocrit (…
primate [11] = settings: Sub-acute repeat dose toxicity; Oral; Gavage/Intubation; dose end: 10 day; group: systemic; systemic / clinical chemistry / alanine aminotransferase (alt/sgpt) / alanine aminotransferase (alt/sgpt) + systemic / clinical chemistry / …
primate [12] = settings: Sub-acute repeat dose toxicity, Oral, Gavage/Intubation, dose end: 30 day, group: systemic
primate [13] = settings: Subchronic oral toxicity in nonrodent, macaque, Gavage/Intubation, dose end: 13 week
rat [14] = settings: Sub-acute repeat dose toxicity, wistar, Oral, Gavage/Intubation, dose end: 33 day, group: systemic
mouse [15] = settings: Combined chronic toxicity/carcinogenicity, cd1, Oral, Gavage/Intubation, dose end: 104 week, group: systemic
rat [16] = settings: Chronic toxicity; wistar; Oral; Gavage/Intubation; dose end: 27 week; group: systemic; systemic / clinical chemistry / bile acids / bile acids + systemic / clinical chemistry / cholesterol / cholesterol + systemic / clinical …
rat [17] = settings: Combined chronic toxicity/carcinogenicity; wistar; Oral; Gavage/Intubation; dose end: 104 week; group: systemic; systemic / in life observation / mortality / mortality + systemic / pathology microscopic / intestine large / [other] + systemic / pathology…
mouse [18] = settings: Carcinogenicity; b6c3f1; Oral; Feed; dose end: 80 week; group: systemic; systemic / pathology microscopic / liver / carcinoma
rat [19] = settings: Carcinogenicity; other; Oral; Feed; dose end: 80 week; group: systemic; systemic / in life observation / body weight / body weight + systemic / in life observation / clinical signs / [other] + systemic / in life …
primate [20] = settings: Sub-acute repeat dose toxicity; Oral; Gavage/Intubation; dose end: 20 day; group: systemic; systemic / in life observation / clinical signs / emesis
rat [21] = settings: Sub-acute repeat dose toxicity, sprague dawley, Oral, Gavage/Intubation, dose end: 14 day, group: systemic
rat [22] = settings: Sub-acute repeat dose toxicity, sprague dawley, Oral, Gavage/Intubation, dose end: 14 day, group: systemic; remark: listed apart in the source
primate [23] = settings: Sub-acute repeat dose toxicity, Oral, Gavage/Intubation, dose end: 14 day, group: systemic
primate [24] = settings: Sub-acute repeat dose toxicity; Oral; Gavage/Intubation; dose end: 15 day; group: systemic; systemic / in life observation / clinical signs / emesis
dog [25] = settings: Sub-acute repeat dose toxicity, beagle, Oral, Gavage/Intubation, dose end: 10 day, group: systemic
[26] = group: developmental, developmental / developmental malformation / bone / short supernumerary
[27] = group: developmental, developmental / developmental malformation / bone / short supernumerary + systemic / in life observation / body weight / fetal weight
[28] = group: maternal, systemic / in life observation / body weight / body weight gain + systemic / in life observation / food consumption / food consumption
[29] = systemic / in life observation / body weight / body weight gain + systemic / pathology microscopic / brain / vacuolization + systemic / …
[30] = systemic / pathology microscopic / spleen / hemosiderosis + systemic / pathology microscopic / uterus / adenocarcinoma
[31] = group: offspring, systemic / in life observation / body weight / offspring (pup) weight + systemic / in life observation / body weight / offspring (pup) …
[32] = group: parental, systemic / organ weight / kidney / absolute + systemic / organ weight / kidney / relative to body weight + systemic / organ weight / liver…
[33] = systemic / clinical chemistry / cholesterol / cholesterol + systemic / clinical chemistry / cytochrome p450, nos / cytochrome p450, nos + …
[34] = systemic / clinical chemistry / urea nitrogen / urea nitrogen + systemic / hematology / neutrophils / neutrophils
[35] = systemic / clinical chemistry / cytochrome p450, nos / cytochrome p450, nos + systemic / hematology / blood clotting / blood clotting - …
[36] = group: maternal, reproductive / reproductive performance / estrous cycle / abnormal
[37] = group: systemic, systemic / clinical chemistry / gamma glutamyl transferase (ggt) / gamma glutamyl transferase (ggt) + systemic / clinical chemistry / …
[38] = systemic / clinical chemistry / albumin / albumin + systemic / clinical chemistry / chloride / chloride + systemic / clinical chemistry / …
[39] = systemic / clinical chemistry / potassium / potassium + systemic / clinical chemistry / triglycerides / triglycerides + systemic / organ …
[40] = systemic / pathology microscopic / gallbladder / adenoma + systemic / pathology microscopic / gallbladder / hemangioma + systemic / …
[41] = systemic / pathology microscopic / gallbladder / adenoma + systemic / pathology microscopic / gallbladder / hyperplasia + systemic / …
[42] = systemic / clinical chemistry / albumin / albumin + systemic / clinical chemistry / globulins / globulins + systemic / clinical chemistry / …
[43] = systemic / in life observation / clinical signs / salivation
[44] = systemic / clinical chemistry / albumin / albumin + systemic / clinical chemistry / cholesterol / cholesterol + systemic / hematology / …
[45] = systemic / clinical chemistry / alanine aminotransferase (alt/sgpt) / alanine aminotransferase (alt/sgpt) + systemic / clinical chemistry / …
[46] = systemic / in life observation / clinical signs / emesis + systemic / in life observation / clinical signs / reduced activity
[47] = systemic / in life observation / clinical signs / emesis
[48] = systemic / in life observation / clinical signs / emesis + systemic / in life observation / clinical signs / abnormal feces

`Nc1c(Cl)cc([N+](=O)[O-])cc1Cl` [Dicloran] was tested, and the LEL (rat [1]; [26]) was 50 mg/kg/day, the NEL (rat [1]; [26]) was < 50 mg/kg/day and the LOAEL (rat [1]; [27]) was 100 mg/kg/day. The NOAEL (rat [1]; [27]) was 50 mg/kg/day, the LEL (rat [1]; [28]) was 50 mg/kg/day and the LOAEL (rat [1]; [28]) was 50 mg/kg/day. The NEL (rat [1]; [28]) was < 50 mg/kg/day, the NOAEL (rat [1]; [28]) was < 50 mg/kg/day and the LOAEL (rat [2]; [29]) was 71 mg/kg/day. For the same compound, the NOAEL (rat [2]; [29]) was 11.3 mg/kg/day, the LEL (rat [2]; [30]) was 3.7 mg/kg/day and the NEL (rat [2]; [30]) was < 3.7 mg/kg/day. It also gave an LEL (mouse [3]) of 86.5 mg/kg/day, an LOAEL (mouse [3]) of 86.5 mg/kg/day and an NEL (mouse [3]) of 24.5 mg/kg/day. For the same compound, the NOAEL (mouse [3]) was 24.5 mg/kg/day, the LEL (rat [4]; [31]) was 87 mg/kg/day and the LOAEL (rat [4]; [31]) was 87 mg/kg/day. For the same compound, the NEL (rat [4]; [31]) was 16.9 mg/kg/day, the NOAEL (rat [4]; [31]) was 16.9 mg/kg/day and the NEL (rat [4]; group: parental, systemic / in life observation / clinical signs / discharge on cageboard) was 16.9 mg/kg/day. The LEL (rat [4]; [32]) was 87 mg/kg/day, the LOAEL (rat [4]; [32]) was 87 mg/kg/day and the NOAEL (rat [4]; [32]) was 16.9 mg/kg/day. For the same compound, the LEL (dog [5]) was 75 mg/kg/day, the LOAEL (dog [5]) was 75 mg/kg/day and the NEL (dog [5]) was 2.5 mg/kg/day. For the same compound, the NOAEL (dog [5]) was 2.5 mg/kg/day, the LEL (dog [6]) was 75 mg/kg/day and the LOAEL (dog [6]) was 75 mg/kg/day. It also gave an NEL (dog [6]) of 2.5 mg/kg/day, an NOAEL (dog [6]) of 2.5 mg/kg/day and an LEL (rat [7]) of 150 mg/kg/day. It also gave an LOAEL (rat [7]) of 150 mg/kg/day, an NEL (rat [7]) of 5 mg/kg/day and an NOAEL (rat [7]) of 5 mg/kg/day.
With `CC(C)(C)c1nnc2ccc(-c3ocnc3-c3cc(F)c(F)cc3F)cn12` the LOAEL (rat [8]; [33]) was > 100 mg/kg/day, the NOAEL (rat [8]; [33]) was ≥ 100 mg/kg/day and the LEL (rat [8]; [34]) was 3 mg/kg/day. For the same compound, the NEL (rat [8]; [34]) was < 3 mg/kg/day, the LEL (primate [9]) was 100 mg/kg/day and the LOAEL (primate [9]) was > 100 mg/kg/day. The NEL (primate [9]) was < 100 mg/kg/day, the NOAEL (primate [9]) was ≥ 100 mg/kg/day and the LEL (rat [10]) was 10 mg/kg/day. For the same compound, the LOAEL (rat [10]) was > 100 mg/kg/day, the NEL (rat [10]) was < 10 mg/kg/day and the NOAEL (rat [10]) was ≥ 100 mg/kg/day. The LEL (primate [11]) was 10 mg/kg/day, the LOAEL (primate [11]) was > 100 mg/kg/day and the NEL (primate [11]) was < 10 mg/kg/day. For the same compound, the NOAEL (primate [11]) was ≥ 100 mg/kg/day, the LOAEL (primate [12]; [35]) was > 100 mg/kg/day and the NEL (primate [12]; [35]) was 3 mg/kg/day. For the same compound, the NOAEL (primate [12]; [35]) was ≥ 100 mg/kg/day and the LEL (primate [12]; systemic / hematology / fibrinogen / fibrinogen) was 10 mg/kg/day.
`Cc1oc(-c2ccccc2)nc1CCOc1ccc(C[C@H](Nc2ccccc2C(=O)c2ccccc2)C(=O)O)cc1` [Farglitazar] was tested, and the LEL (primate [13]; [36]) was 50 mg/kg/day, the LOAEL (primate [13]; [36]) was > 50 mg/kg/day and the NEL (primate [13]; [36]) was 5 mg/kg/day. For the same compound, the NOAEL (primate [13]; [36]) was ≥ 50 mg/kg/day, the LEL (primate [13]; [37]) was 0.5 mg/kg/day and the LOAEL (primate [13]; [37]) was > 50 mg/kg/day. For the same compound, the NEL (primate [13]; [37]) was < 0.5 mg/kg/day, the NOAEL (primate [13]; [37]) was ≥ 50 mg/kg/day and the LOAEL (rat [14]; [38]) was > 500 mg/kg/day. The NOAEL (rat [14]; [38]) was ≥ 500 mg/kg/day, the LEL (rat [14]; [39]) was 0.5 mg/kg/day and the NEL (rat [14]; [39]) was < 0.5 mg/kg/day. The LOAEL (mouse [15]; [40]) was > 50 mg/kg/day, the NOAEL (mouse [15]; [40]) was ≥ 50 mg/kg/day and the LEL (mouse [15]; [41]) was 1 mg/kg/day. For the same compound, the NEL (mouse [15]; [41]) was < 1 mg/kg/day, the LEL (rat [16]) was 0.5 mg/kg/day and the LOAEL (rat [16]) was > 50 mg/kg/day. The NEL (rat [16]) was < 0.5 mg/kg/day, the NOAEL (rat [16]) was ≥ 50 mg/kg/day and the LEL (rat [17]) was 0.5 mg/kg/day. The LOAEL (rat [17]) was > 20 mg/kg/day, the NEL (rat [17]) was < 0.5 mg/kg/day and the NOAEL (rat [17]) was ≥ 20 mg/kg/day.
`Nc1cc(Cl)cc(C(=O)O)c1Cl` [Chloramben] was tested, and the LEL (mouse [18]) was 1500 mg/kg/day, the LOAEL (mouse [18]) was > 3000 mg/kg/day and the NEL (mouse [18]) was < 1500 mg/kg/day. For the same compound, the NOAEL (mouse [18]) was ≥ 3000 mg/kg/day, the LEL (rat [19]) was 1000 mg/kg/day and the LOAEL (rat [19]) was > 1000 mg/kg/day. The NEL (rat [19]) was 500 mg/kg/day and the NOAEL (rat [19]) was ≥ 1000 mg/kg/day.
For `CC(C)(O)c1ccc(CNC(=O)c2cccnc2Oc2ccc3nonc3c2)cc1`, the LEL (primate [20]) was 20 mg/kg/day, the LOAEL (primate [20]) was > 300 mg/kg/day and the NEL (primate [20]) was < 20 mg/kg/day. The NOAEL (primate [20]) was ≥ 300 mg/kg/day, the LOAEL (rat [21]; [42]) was > 160 mg/kg/day and the NOAEL (rat [21]; [42]) was ≥ 160 mg/kg/day. The LEL (rat [21]; [43]) was 5 mg/kg/day, the NEL (rat [21]; [43]) was < 5 mg/kg/day and the LOAEL (rat [22]; [44]) was > 125 mg/kg/day. The NEL (rat [22]; [44]) was 5 mg/kg/day, the NOAEL (rat [22]; [44]) was ≥ 125 mg/kg/day and the LEL (rat [22]; systemic / pathology microscopic / mesentery / inflammation) was 25 mg/kg/day. For the same compound, the LOAEL (primate [23]; [45]) was > 1000 mg/kg/day, the NOAEL (primate [23]; [45]) was ≥ 1000 mg/kg/day and the LEL (primate [23]; [46]) was 20 mg/kg/day. For the same compound, the NEL (primate [23]; [46]) was < 20 mg/kg/day, the LEL (primate [24]) was 5 mg/kg/day and the LOAEL (primate [24]) was > 50 mg/kg/day. The NEL (primate [24]) was 1 mg/kg/day, the NOAEL (primate [24]) was ≥ 50 mg/kg/day and the LEL (dog [25]; [47]) was 10 mg/kg/day. The NEL (dog [25]; [47]) was < 10 mg/kg/day, the LOAEL (dog [25]; [48]) was > 250 mg/kg/day and the NOAEL (dog [25]; [48]) was ≥ 250 mg/kg/day.
